Laboratory results published in patent US7465814B2, “Sulfonate compound and fluorescent probe using the same” (priority 2003, dated 2008).

Key:
[1] = Reactivity with superoxide and glutathione (FIG. 4); assay type: biochemical; conditions: same conditions as 1-3 Superoxide-selectivity (2)
Method: (§1) Moreover, in other conditions than those of the above-described tests, reactivity of all of the compounds 1a to 1d with H2O2, other various kinds of nucleophilic agents, reducing agents and the like also was tested, respectively. More specifically, fluorescent responses of 1a to 1d with respect to a XO-HPX system, a XO-HPX-SOD system, H2O2, ascorbic acid, 1,4-hydroquinone, propylamine, diethylamine, glucose, esterase, a cytochrome P450 reductase+NADPH system, and a diaphorase+NADH system were measured, respectively. Operational processes thereof will be described below. Firstly, 1a to 1d and the above-described reagents were dissolved in HEPES of 10 mM having a pH of 7.4 so as to prepare solutions, respectively. Next, a 96 wellmicroplate was provided, where any of the solutions of 1a to 1d (25 μM, 170 μL) was poured into each of the wells, and furthermore, 30 μL of a blank solution or 30 μL of the solution of the reagent to be reacted therewith was added thereto. Final concentrations of the solutions in the wells were adjusted so that concentrations of the solutions of 1a to 1d respectively could be 21.3 μM, that of XO could be 13.1 mU/mL, those of HPX, H2O2, ascorbic acid, 1,4-hydroquinone, propylamine, diethylamine, glucose, NADPH and NADH respectively could be 50 μM, that of cytochrome P450 reductase could be 68 mU/mL, that of diaphorase could be 65 mU/mL, and that of esterase could be 0.5 U/mL, respectively. Then, after they reacted in the wells at 37° C. for 10 minutes, fluorescent responses were measured respectively. Fluorescence intensity measurement was conducted by using an ETC-272 Peltier thermostatted single cell holder (trade name) manufactured by JASCO Corporation or a SpectraMax GeminiEM fluorescence plate reader (trade name) manufactured by Molecular Devices Corporation provided with a FP-750 spectrofluorometer (trade name) manufactured by JASCO Corporation, and by setting excitation wavelengths and emission wavelengths so that those of 1a, 1b and 1c respectively could be 485 nm and 515 nm, and those of 1d respectively could be 511 nm and 540 nm.
(§2) The reactivity of each of the compounds 1d, 5a, 6a, 7 and 8a with respect to superoxide and glutathione (GSH) that is a kind of thiol was tested under the same conditions as those of [1-3. Superoxide-selectivity (2)] in Example 1. […] A vertical axis thereof denotes a fluorescence intensity, which is represented in % of control.

[2] = Responses to the compounds listed in Table 1; assay type: biochemical; conditions: same conditions as Example 1
Method: as §1, §2

[3] = Fluorescence response to glutathione, quantitativity (FIG. 5); assay type: biochemical; conditions: for detection limit of GSH: probe 200 μL, HEPES pH 7.4, 37° C., 10 minutes; for inclination of calibration curve, GSH: up to 1000 pmol
Method: (§3) Quantitativity and the like of each of the compounds 6a and 8a with respect to a mercapto compound were evaluated, by using glutathione (GSH) and cysteine that are kinds of thiol. More specifically, an EtOH solution of the compound 6a (10 mM) was prepared, and it further was diluted by 500-fold with a HEPES buffer solution having a pH of 7.4, thereby preparing a probe solution containing the compound 6a. Next, 200 μL of this probe solution and 10 μL of each of solutions of glutathione or cysteine (dissolved in a HEPES buffer solution having a pH of 7.4) with various concentrations were added into each well of a 96-wellmicroplate, and were allowed to stand still at 37° C. for 10 minutes so as to undergo a reaction. Moreover, a probe solution containing 8a was prepared in the same manner as the preparation of the solution of the compound 6a except using 8a instead of 6a, and this probe solution also was allowed to react with a thiol solution in the same manner as the reaction of the probe solution containing 6a. Then, a fluorescence response of each well was measured after the reaction. The measurement of 6a was conducted at λex=383 nm and λem=500 nm, and the measurement of 8a was conducted at λex=483 nm and λem=515 nm. Herein, λex denotes an excitation wavelength, and λem denotes an emission wavelength.
(§4) FIG. 5A is a graph showing the measurement result of 6a, and FIG. 5B is a graph showing the measurement result of 8a.

[4] = Fluorescence response to cysteine, quantitativity (FIG. 5); assay type: biochemical; conditions: for detection limit of cysteine: probe 200 μL, HEPES pH 7.4, 37° C., 10 minutes; for inclination of calibration curve, cysteine: up to 1000 pmol
Method: as §3, §4

[5] = Reaction with other nucleophilic agents instead of thiol; assay type: biochemical; conditions: same conditions as the thiol test
Method: Quantitativity and the like of each of the compounds 6a and 8a with respect to a mercapto compound were evaluated, by using glutathione (GSH) and cysteine that are kinds of thiol. […] Moreover, a probe solution containing 8a was prepared in the same manner as the preparation of the solution of the compound 6a except using 8a instead of 6a, and this probe solution also was allowed to react with a thiol solution in the same manner as the reaction of the probe solution containing 6a. Then, a fluorescence response of each well was measured after the reaction. The measurement of 6a was conducted at λex=383 nm and λem=500 nm, and the measurement of 8a was conducted at λex=483 nm and λem=515 nm. Herein, λex denotes an excitation wavelength, and λem denotes an emission wavelength.

[6] = Fluorescence response to thiophosphonate group (FIG. 8); assay type: biochemical
Source text: Moreover, a capability of the sulfonate compound of the present invention as a fluorescent probe for mercapto compounds other than thiol (a compound in which a —SH group is bonded to a carbon atom) was examined. […]

[7] = tested on: thiophosphorylated protein; test: Fluorescence response to thiophosphorylated protein; assay type: biochemical
[8] = tested on: acetyl cholinesterase (AChE); conditions: range from 0.1 μU to 0.5 μU, 37° C., 10 minutes, acetyl thiocholine substrate
Method: Firstly, an EtOH solution of the compound 8a (10 mM) was prepared, and it further was diluted by 500-fold with a HEPES buffer solution having a pH of 7.4, thereby preparing a probe solution containing the compound 8a (20 μM). Whereas, a solution (1 mM) was prepared by dissolving commercially available acetyl thiocholine in a HEPES buffer solution having a pH of 7.4. Moreover, acetyl cholinesterase (AChE) solutions (solutions obtained by dissolving acetyl cholinesterase in a HEPES buffer solution having a pH of 7.4) with various concentrations (activity levels) were prepared.
Next, 200 μL of the probe solution, 10 μL of the acetyl thiocholine solution and 10 μL of each of the acetyl cholinesterase (AChE) solutions with various concentrations (activity levels) were added into each well of a 96-wellmicroplate, and underwent an enzyme reaction at 37° C. for 10 minutes. Immediately after the reaction, a fluorescence response of each well was measured at λex (excitation wavelength) of 483 nm and λem (emission wavelength) of 515 nm.

[9] = Capability as superoxide-detecting fluorescent probe (reactivity with superoxide); assay type: biochemical; conditions: tested similarly to the compound 1d
Method: Then, by mainly using the compound 1d as a testing compound, the capability thereof as a superoxide-selective fluorescent probe was evaluated, and moreover, a test in a cell system also was conducted. These tests will be described below.
Thus, it is thought that each compound synthesized from a combination of: a phenolic colorant; and a 2,4-dinitrobenzenesulfonyl group, a 4-trifluoromethyl-2-nitrobenzenesulfonyl group or a 4-nitrobenzenesulfonyl group can be used as a superoxide-detecting fluorescent probe similarly. An example of the usage thereof will be shown in Scheme 8 below. Furthermore, it can be expected that a compound for a fluorescent probe having characteristics that are suitable for its application purpose can be designed and developed freely, by designing the compound of the present invention freely within the limitation defined by the general formula (I) and using the fluorescence mechanism developed by the inventors of the present invention, without being limited to the above-described combinations. Examples of the application purpose of the compound of the present invention are varied, including an application to a faintly coloring technique using superoxide.

| Compound | selectivity (specificity), superoxide versus glutathione, FIG. 4 [1] | response with respect to each of the compounds listed in Table 1 [2] | detection limit of GSH [3] | inclination of calibration curve, GSH [3] | detection limit of cysteine [4] | inclination of calibration curve, cysteine [4] | fluorescence with other nucleophilic agent instead of thiol [5] | detection limit of γ-S-ATP ([6]; probe 20 μM 200 μL, imidazole buffer pH 7.4, 37° C., 180 minutes) | fluorescence responses to thiophosphorylated protein with different introduction degrees of the thiophosphonate group [7] | inclination, AChE activity versus fluorescence response [8] | deprotection by superoxide into the corresponding fluorochrome [9] | response to thiol group in thiophosphonate group ([6]; γ-S-ATP and adenosine monothiophosphate (S-AMP)) |
| --- | --- | --- | --- | --- | --- | --- | --- | --- | --- | --- | --- | --- |
| O=C(O)c1ccccc1-c1c2ccc(=O)cc-2oc2cc(OS(=O)(=O)c3ccc([N+](=O)[O-])cc3[N+](=O)[O-])ccc12 [Compound 8a] | excellent mercapto compound-selectivity | almost no response | 2 pmol | 4.25 au/pmol | 1 pmol | 4.82 au/pmol | no fluorescence at all | 5 pmol | fluorescence responses corresponding to the respective introduction degrees were obtained | 28.8 au/μU | – | – |
| O=c1cc(C(F)(F)F)c2ccc(OS(=O)(=O)c3ccc([N+](=O)[O-])cc3[N+](=O)[O-])cc2o1 [Compound 6a] | excellent mercapto compound-selectivity | almost no response | 7 pmol | 0.37 au/pmol | 7 pmol | 0.66 au/pmol | no fluorescence at all | – | – | – | deprotected by superoxide | responded to a thiol group in a so-called thiophosphonate group |
